Source: patent US10214766B2, “Luminescent substrate for use in artificial bioluminescent enzyme” (NATIONAL INSTITUTE OF ADVANCED INDUSTRIAL SCIENCE AND …, priority 2013, dated 2019)
Entries after “also recorded” stand apart in the source; their conditions may differ.

What was measured:
Type in all cases: biochemical
ALuc34 = test: Relative luminescence intensity of lysates of COS-7 cells expressing ALuc34 after adding coelenterazine derivatives; conditions: for Ratios (A34/RLuc8.6-535): ALuc34 intensity over RLuc8.6-535 intensity, same substrate; for Luminescence intensity ALuc34 ave: COS-7 lysate 10 μL, LAS-4000; for substrate selectivity (RLuc8.6-535:ALuc, 1:x): luminescence intensity of ALuc compared with RLuc8.6-535, same substrate
Experimental: (§1) First, African monkey kidney-derived culture cells COS-7 were cultured in a 96-well plate until the culture area covered 90% of the lower area of the plate. At this stage, the plate wells growing cells were divided into two groups, and pcDNA3.1(+) vector, which expresses ALuc34 or RLuc8.6-535, was introduced into each group by the lipofection technique (TransIT-LT1), followed by further incubation for 16 hours. After incubation, the cells were lysed and an aliquot of the lysates (10 μL) is placed in a fresh 96-well plate. Different luminescent substrates were simultaneously added thereto using a multichannel pipette, and the relative luminescence intensity was immediately measured with a luminescence imaging analyzer LAS-4000 (FujiFilm). […] As used herein, “substrate selectivity” refers to a luminescence intensity of ALuc compared with the luminescence intensity of RLuc8.6-535 in the presence of the same luminescent substrate.

RLuc8.6-535 [1] = target: T1, RLuc8.6-535 (Renilla reniformis, UniProt P27652, A123S/A143M/A55T/C124A/D162E/I163L/K136R/M185L/M253L/S130A/S287L); conditions: COS-7 lysate 10 μL, LAS-4000
T1 construct: expressed in transfected cells; host or cells: COS-7 (African monkey kidney), lysate
Experimental: as §1

RLuc8.6-535 [2] = target: T1, RLuc8.6-535; conditions: 5 μL lysate + 30 μL substrate, AB-1850
[3] = system: Cypridina luciferase (CLuc); test: Dual assay with or without 0.1% SDS, CLuc luminescence
Experimental: (§2) It is advantageous for simultaneous measurement of multiple biomarkers if a dual assay can be performed in the presence of two or more bioluminescent enzymes. With this point in mind, luminescence was measured in the presence of two bioluminescent enzymes (ALuc and CLuc) (FIG. 5). First, COS-7 cells were cultured in a 96-well plate, and a plasmid that expresses ALuc or CLuc was transfected into each cellular compartment by lipofection. Under the conditions, CLuc is secreted, but ALuc largely remains inside the cells because of the endoplasmic reticulum localization signal (KDEL) attached to the terminus. 16 hours later, 10 μL of the CLuc culture solution was mixed with 2 μL of ALuc lysate. Then, the luminescence intensity was compared between the cases where 0.1% SDS was added or not, After addition of the luminescent substrates specific to ALuc and CLuc, respectively.

ALuc = test: Dual assay with or without 0.1% SDS, ALuc luminescence; conditions: sulfate
Experimental: as §2

T1 sequence (P27652 whole entry A55T/A123S/C124A/S130A/K136R/A143M/D162E/I163L/M185L/M253L/S287L): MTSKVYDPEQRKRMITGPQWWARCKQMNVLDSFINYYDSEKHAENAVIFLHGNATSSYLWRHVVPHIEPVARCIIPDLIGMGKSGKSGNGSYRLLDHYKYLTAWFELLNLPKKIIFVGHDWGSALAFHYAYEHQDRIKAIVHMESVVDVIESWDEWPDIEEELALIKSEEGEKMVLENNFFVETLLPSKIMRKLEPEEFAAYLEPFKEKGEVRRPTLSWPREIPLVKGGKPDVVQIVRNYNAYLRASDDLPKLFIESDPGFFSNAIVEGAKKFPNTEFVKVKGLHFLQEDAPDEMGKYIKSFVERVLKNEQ

Compound | Ratios (A34/RLuc8.6-535) (ALuc34) | Luminescence intensity ALuc34 ave (ALuc34) [RLU/μg/sec/mm2] | Luminescence intensity RLuc8.6-535 ave (RLuc8.6-535 [1]) [RLU/μg/sec/mm2] | luminescence intensity with ALuc (in words) (ALuc34) | substrate selectivity (RLuc8.6-535:ALuc, 1:x) (ALuc34) | Spectrum peak RLuc8.6-535 (RLuc8.6-535 [2]) [nm] | luminescent substrate selectivity (ALuc34; ALuc versus RLuc8.6-535) | effect on CLuc luminescence activity [3] | effect on ALuc luminescence activity (ALuc)
O=c1c(Cc2ccc3ccccc3c2)nc2c(Cc3ccccc3)[nH]c(-c3ccc(O)cc3)cn1-2 | 81 | 172323 | 2132 | – | – | – | – | – | –
O=c1c(Cc2ccccc2)nc2c(Cc3ccccc3)[nH]c(-c3ccccc3)cn1-2 [CTZ 400, coelenterazine 400A] | 3610 | 11624 | 3 | luminescence intensity was almost not observed at all | – | – | – | – | –
O=c1c(Cc2ccc(F)cc2)nc2c(Cc3ccccc3)[nH]c(-c3ccc(O)cc3)cn1-2 [CTZ f, coelenterazine f] | 134 | 956530 | 7151 | – | 134 | 547 | – | – | –
Oc1ccc(-c2cn3c(O)c(Cc4ccc(F)cc4)nc3c(CC3CCCC3)n2)cc1 [CTZ fcp, coelenterazine fcp, reference compound] | 3 | 3712 | 1217 | – | – | – | – | – | –
O=c1c(Cc2ccccc2)nc2c(Cc3ccccc3)[nH]c(-c3ccc(O)cc3)cn1-2 [CTZ h, coelenterazine h] | 91 | 1168658 | 12812 | strong luminescence | – | 545 | – | – | –
Oc1ccc(-c2cn3c(O)c(Cc4ccccc4)nc3c(CC3CCCC3)n2)cc1 [CTZ hcp, coelenterazine hcp, reference compound] | 3 | 5191 | 2058 | – | – | – | – | – | –
O=c1c(Cc2ccc(I)cc2)nc2c(Cc3ccccc3)[nH]c(-c3ccc(O)cc3)cn1-2 [CTZ i, coelenterazine i] | 9398 | 913540 | 97 | high luminescence intensity | 9400 | – | about 10,000 fold | – | –
Oc1ccc(Cc2nc3c(CC4CCCC4)nc(-c4ccc(O)cc4)cn3c2O)cc1 [CTZ op, coelenterazine cp, reference compound] | 8 | 40564 | 5354 | – | – | – | – | – | –
CCCCCCCCCCCCOS(=O)(=O)[O-].[Na+] [SDS, sodium dodecyl sulfate] | – | – | – | – | – | – | – | somewhat maintained luminescence activity | substantially deactivated; also recorded: mostly quenched
coelenterazine ip [CTZ ip, reference compound] | 4 | 8379 | 2200 | – | – | 535 | – | – | –
